Source: US10407467B2, “Polymyxin derivatives and their use in combination therapy together with different antibiotics” (priority 2013, dated 2019)
Structures can show the parent of a compound that is named as a salt. Where two headings read alike, the source gives them in different places. Bridge positions count the residues as written; N and C are the ends. Square brackets hold non-standard residues; d marks the D form. Peptide text beside a SMILES is read from it. * marks the point of attachment. ξ: configuration not given here. Acetyl(3-pyridyl) = O=C(Cc1cccnc1)*; Thr(3ξ) = CC(O)[C@H](N)C(=O)O; Dab = NCC[C@H](N)C(=O)O; Bz = O=C(c1ccccc1)*

How the values were obtained:
Assay type in all cases: cell-based
Klebsiella pneumoniae [1] = assay: MIC, compound in combination with a second agent (broth microdilution); settings: 1:1 (wt:wt) combination with Rifampicin; MIC is total drug concentration
Experimental: (§1) To evaluate the potency and spectrum of the compounds both alone and in combination with another agent, susceptibility testing was performed against up to four strains of each of the four Gram negative pathogens, Escherichia coli, Pseudomonas aeruginosa, Klebsiella pneumoniae and Acinetobacter baumannii.
(§2) Ratios of components in a combination, such as 1:1, refers to a weight to weight ratio. The minimum inhibitory concentration (MIC) refers to the total drug concentration (e.g. test compound plus second agent, such as Rifampicin).
(§3) The inoculum was prepared by making a direct suspension of isolated colonies (selected from an 18-24 hour Mueller-Hinton agar plate) adjusted to the 0.5 McFarland standard.
(§4) The assays were performed in duplicate.
(§5) In cases where the duplicate values varied by less than 2-fold, the lower of the two values is reported. If a variation of greater than 2-fold was observed, the assay was considered non-valid. Several of the compounds were subjected to multiple tests, and where this is the case, the MIC reflects the modal value obtained.
(§6) The minimum inhibitory concentration refers to the total drug concentration (e.g. test compound plus Rifampicin). The compounds are used at equal mass within the combination. The weight refers to the mass of compound as used, for example the Example Compounds are used in their TFA or sulphate salt forms.
(§7) MICs refer to the total drug concentration. Thus, where a 1:1 combination is used, this is the amount of the test compound plus the second agent. For comparison, the MIC values for the second agent alone are also given.

Pseudomonas aeruginosa [2] = assay: as above; settings: 1:1 (wt:wt) combination with Rifampicin; MIC is total drug concentration
Experimental: as §1, §2, §3, §4, §5, §6, §7

Escherichia coli = assay: MIC, sole activity (no second agent); settings: Escherichia coli
Experimental: as §1, §3, §4, §5
(§8) MICs were determined as described herein, except that a different supplier of Cation-adjusted MHB was used. […] Values are reported relative to Polymyxin B.

Klebsiella pneumoniae [3] = assay: MIC, sole activity (no second agent); settings: Klebsiella pneumoniae
Experimental: as §1, §3, §4, §5, §8

Pseudomonas aeruginosa [4] = assay: MIC, sole activity (no second agent); settings: Pseudomonas aeruginosa
Experimental: as §1, §3, §4, §5, §8

[5] = NCTC9001, read-out: MIC E. coli NCTC9001
[6] = CCUG59348, read-out: MIC K. pneumoniae CCUG 59348
[7] = NCTC13442, read-out: MIC K. pneumoniae NCTC 13442

Q: For `CC(C)C[C@@H]1NC(=O)[C@@H](Cc2ccccc2)NC(=O)[C@H](CCN)NC(=O)[C@@H](NC(=O)[C@H](CCN)NC(=O)[C@@H](NC(=O)c2ccccc2)C(C)O)CCNC(=O)[C@H](C(C)O)NC(=O)[C@H](CCN)NC(=O)[C@H](CCN)NC1=O` (stereo partly shown) [Example C3, Benzoyl polymyxin B nonapeptide, sulphate salt, reference compound] (Bz-[Thr(3ξ)][Dab][Dab][Dab][dF]L[Dab][Dab][Thr(3ξ)]; lactam 3-C), which “MIC K. pneumoniae ATCC-BAA-2146” value (Klebsiella pneumoniae [1]) is on record?
A: 2 micrograms/mL

Q: What about the “MIC K. pneumoniae CCUG-59348” value (Klebsiella pneumoniae [1]) of the same compound?
A: 8 micrograms/mL

Q: What about the “MIC K. pneumoniae NCTC 13438” value (Klebsiella pneumoniae [1]) of the same compound?
A: 2 micrograms/mL

Q: And the “MIC P. aeruginosa CCUG 59626” value (Pseudomonas aeruginosa [2])?
A: 1 micrograms/mL

Q: How did the “MIC K. pneumoniae ATCC-BAA-2146” value (Klebsiella pneumoniae [1]) turn out when `CC(C)C[C@@H]1NC(=O)[C@@H](Cc2ccccc2)NC(=O)[C@H](CCN)NC(=O)[C@@H](NC(=O)[C@H](CCN)NC(=O)[C@@H](NC(=O)Cc2cccnc2)C(C)O)CCNC(=O)[C@H](C(C)O)NC(=O)[C@H](CCN)NC(=O)[C@H](CCN)NC1=O` (stereo partly shown) [Example C5, 3-pyridyl ethanoyl polymyxin B nonapeptide, reference compound] ({Acetyl(3-pyridyl)}-[Thr(3ξ)][Dab][Dab][Dab][dF]L[Dab][Dab][Thr(3ξ)]; lactam 3-C) was run?
A: 1 micrograms/mL

Q: And the “MIC K. pneumoniae CCUG-59348” value (Klebsiella pneumoniae [1])?
A: 4 micrograms/mL

Q: And the “MIC K. pneumoniae NCTC 13438” value (Klebsiella pneumoniae [1])?
A: 2 micrograms/mL

Q: What about the “MIC P. aeruginosa CCUG 59626” value (Pseudomonas aeruginosa [2]) of the same compound?
A: 0.25 micrograms/mL

Q: Which MIC (Escherichia coli; Table 7I, E. coli ATCC25922, second agent none, read-out: MIC E. coli (ATCC25922)) does the source give for `CC(=O)O[C@H]1C[C@@]2(C)[C@@H](C[C@@H](O)[C@H]3[C@@]4(C)CC[C@@H](O)[C@@H](C)[C@@H]4CC[C@@]32C)/C1=C(\CCC=C(C)C)C(=O)O` [Fusidic acid, reference compound] here?
A: > 32 mg/L

Q: And the MIC (Klebsiella pneumoniae [3]; Table 7I, K. pneumoniae ATCC4352, second agent none, read-out: MIC K. pneumoniae (ATCC4352))?
A: 16 mg/L

Q: Which MIC (Escherichia coli; E. coli NCTC9001, second agent none, read-out: MIC E. coli (NCTC9001)) does the source give for `C[C@@H](O)[C@H]1C(=O)N2C(C(=O)O)=C(S[C@@H]3CN[C@H](C(=O)N(C)C)C3)[C@H](C)[C@H]12` [Meropenem, reference compound] here?
A: 0.125 mg/L

Q: And the MIC (Klebsiella pneumoniae [3]; ATCCBAA1706, K. pneumoniae ATCC BAA-1706, second agent none, read-out: MIC K. pneumoniae ATCC BAA-1706)?
A: 16 mg/L

Q: And the MIC (Klebsiella pneumoniae [3]; CCUG59348, K. pneumoniae CCUG 59348, second agent none, read-out: MIC K. pneumoniae CCUG 59348)?
A: > 32 mg/L

Q: And the MIC (Klebsiella pneumoniae [3]; NCTC13442, K. pneumoniae NCTC 13442, second agent none, read-out: MIC K. pneumoniae NCTC 13442)?
A: 16 mg/L

Q: What about the MIC (Pseudomonas aeruginosa [4]; CCUG59626, P. aeruginosa CCUG 59626, second agent none, read-out: MIC P. aeruginosa CCUG 59626) of the same compound?
A: 16 mg/L

Q: Which results are given for `Cc1onc(-c2ccccc2)c1C(=O)N[C@@H]1C(=O)N2[C@@H]1SC(C)(C)[C@@H]2C(=O)O` [Oxacillin, reference compound]?
A: MIC (Escherichia coli; Table 7G, E. coli ATCC25922, second agent none, read-out: MIC E. coli (ATCC25922)): > 32 mg/L; MIC (Klebsiella pneumoniae [3]; Table 7G, K. pneumoniae ATCC4352, second agent none, read-out: MIC K. pneumoniae (ATCC4352)): 16 mg/L

Q: What does the source list for `CN(C)c1cc(NC(=O)CNC(C)(C)C)c(O)c2c1C[C@H]1C[C@H]3[C@H](N(C)C)C(O)=C(C(N)=O)C(=O)[C@@]3(O)C(O)=C1C2=O` [Tigecycline, reference compound]?
A: MIC (Escherichia coli; [5]): 0.125 mg/L; MIC (Klebsiella pneumoniae [3]; [6]): 2 mg/L; MIC (Klebsiella pneumoniae [3]; [7]): 2 mg/L; MIC (Pseudomonas aeruginosa [4]; CCUG59626, read-out: MIC P. aeruginosa CCUG 59626): 16 mg/L

Q: Which MIC (Escherichia coli; [5]) does the source give for `CN[C@H](CC(C)C)C(=O)N[C@H]1C(=O)N[C@@H](CC(N)=O)C(=O)N[C@H]2C(=O)N[C@H]3C(=O)N[C@H](C(=O)N[C@H](C(=O)O)c4cc(O)cc(O)c4-c4cc3ccc4O)[C@H](O)c3ccc(c(Cl)c3)Oc3cc2cc(c3O[C@@H]2O[C@H](CO)[C@@H](O)[C@H](O)[C@H]2O[C@H]2C[C@](C)(N)[C@H](O)[C@H](C)O2)Oc2ccc(cc2Cl)[C@H]1O` [Vancomycin, reference compound] here?
A: > 32 mg/L

Q: And the MIC (Klebsiella pneumoniae [3]; [6])?
A: > 32 mg/L

Q: What about the MIC (Klebsiella pneumoniae [3]; CCUG59626, read-out: MIC K. pneumoniae CCUG 59626) of the same compound?
A: > 32 mg/L

Q: What about the MIC (Klebsiella pneumoniae [3]; [7]) of the same compound?
A: > 32 mg/L
